Laboratory results from patent publication US8227510B2, “Combine use of pterostilbene and quercetin for the production of cancer treatment medicaments” (Universitat de Valencia, priority 2004, dated 2012).
Marks after values point to notes of the source that are not given here.

Experiments:
[1] = Plasma levels after oral administration in mice; type: in vivo; settings: 20 mg/kg oral
Text: The mice (C57BL/6J, male, 6-8 weeks) were from Charles River Spain (Barcelona). The procedures and animal care were based on institutional standards and complied with national and international laws and policies (Directive 86/609, OJ L 358. 1 of the Council of the European Community, of 12 Dec. 1987) and the “Guide for the Care and Use of Laboratory Animals” of the National Institutes of Health (NIH, USA) (NIH Publication No. 85-23, 1985). All the animals were fed according to concentrated laboratory diets (Letica, Barcelona, Spain) allowing them free access to food and submitting them to a cycle of 12 hours of light/12 hours of darkness with ambient temperature of 22° C. The experiments were begun at 10.00 a.m. to minimize the effects of diurnal variations.
(§1) For the pharmacokinetic studies and for the daily treatment, the mice were administered i.v. (via the jugular vein, where a permanent catheter had previously been fixed by surgical methods; i.v. administration was carried out slowly for 1 minute), and orally (via stomach tube), 20 mg/kg of t-PTER (dissolved in ethanol 0.5 ml/kg of animal weight) or QUER (dissolved in dimethylsulfoxide:saline, 1:0.5 0.15 ml/kg of weight). In general, the compositions based on a combination of PTER and QUER can contain, as excipients, those stated previously or any others that are pharmaceutically acceptable. The presentation of said compositions can be, non-limitatively, in the form of solids such as tablets, capsules, pellets, pills, etc. and liquid presentations such as drops, syrups, injectables, etc. Moreover, the active principles (PTER and QUER) of the composition can be in their uncombined forms or in the form of pharmaceutically acceptable salts, including esters. The t-PTER was synthesized in our laboratory following standardized reactions of Wittig and Heck (www.orgsyn.org), whereas the QUER was obtained from Sigma Chemical Co. (San Luis, Mo., USA). The ^3H-t-PTER (2.2 Ci/mmol), labeled in the ortho and para positions of the benzene rings, was prepared in our laboratory according to a method similar to that used for the deuteration of phenols (18). ^14C-QUER (50 mCi/mmol), labeled in position 4 of the carbon ring, was obtained from the NCI Radiochemical Carcinogen Repository of Chemsyn Laboratories (Kansas City, Mo., USA). The radioactivity was measured using a Varisette 2700 TR analyzer from Packard. Blood was collected by means of the catheter in 1-ml syringes that contained heparin sodium (0.05 ml of a 5% solution in […]). The plasma and the erythrocytes were separated as described previously (19).
LC-MS/MS was carried out using a Quattro Micro triple quadrupole mass spectrometer (Micromass, Manchester, UK) equipped with an LC-10Advp pump, an SLC-10Avp control system and an SIL-10Advp autoinjector from Shimadzu. The samples were analyzed by reverse-phase high-performance liquid chromatography using a Prodigy ODS column (100×2 mm) from Phenomenex (Torrance, Calif., USA), with a particle size of 3 μm. In all cases, 40 μl was injected into the column. Column temperature was maintained at 25° C. The following gradient system was used, pumped through the column at 0.2 ml/minute (min/% A/% B/% C) (A, methanol; B, 10% acetonitrile and 90% ammonium formate 10 mM pH 3.75; C, ammonium formate 10 mM pH 3.75): 0/5/5/90, 10/5/5/90, 20/5/90/5, 30/100/0/0, 40/5/5/90. The negative ion tandem mass spectra obtained by electrospray were recorded with the electrospray capillary fixed at […] and at a temperature of the source block of 120° C. Nitrogen was used as nebulizer gas and drying gas, with flows of 300 and 30 l/h, respectively. Argon at 1.5×10^−3 mbar was used as the collision gas for collision-induced dissociation. A test was carried out based on LC-MS/MS with tracking of multiple reactions using the transitions m/z 255-240 for PTER and […] for QUER, which in both cases represent favorable fragmentation routes for these deprotonated molecules. […]

[2] = Extravascular (tissue) levels after intravenous administration in mice; type: in vivo; parameters: unit not given here; settings: 20 mg/kg i.v.
Protocol: as §1
To supplement the pharmacokinetics in plasma/blood, we also evaluated the bioavailability of PTER and QUER in extravascular tissues. […] Therefore, it appears that neither of the polyphenols is subject to extravascular accumulation and that their presence in various tissues (Table 2) is parallel in time to their bioavailability in the bloodstream (FIG. 1).
The animals were treated with t-PTER or QUER (20 mg/kg, containing 5 μCi of ^3H-t-PTER or 2 μCi ^14C-QUER). A group of 4-5 mice was sacrificed at each time point. Not detectable=n.d. *P<0.01 comparing the data obtained at 10-60 minutes with the data found 5 minutes after administration of the polyphenol.

Row | Structure (SMILES) | time of peak of plasma levels [1] [min] | Plasma level (total) ([1]; 5 minutes) [µM] | Plasma level, % free ([1]; 5 minutes) [% free] | Plasma level (total) ([1]; 10 minutes) [µM] | Plasma level, % free ([1]; 10 minutes) | Plasma level (total) ([1]; 30 minutes) [µM] | Plasma level, % free ([1]; 30 minutes) | Plasma level (total) ([1]; 60 minutes) [µM] | Plasma level, % free ([1]; 60 minutes) | Plasma level (total) ([1]; 120 minutes) [µM] | Plasma level, % free ([1]; 120 minutes) | Plasma level (total) ([1]; 240 minutes) [µM] | Plasma level, % free ([1]; 240 minutes) | Plasma level (total) ([1]; 480 minutes) [µM] | Plasma level, % free ([1]; 480 minutes) | Plasma level (total) ([1]; 720 minutes) [µM] | Plasma level, % free ([1]; 720 minutes) | Extravascular level, Brain ([2]; 5 min) | Extravascular level, Kidney ([2]; 5 min) | Extravascular level, Liver ([2]; 5 min) | further results
1 | COc1cc(/C=C/c2ccc(O)cc2)cc(OC)c1 [PTER, pterostilbene] | 60 | 2.9 ± 0.6 | 67 ± 13 | 6.6 ± 1.8 | 50 ± 10 % free | 11.1 ± 3.0 | 35 ± 5 % free | 18.2 ± 2.7 | 17 ± 6 % free | 13.3 ± 3.4 | 15 ± 3 % free | 10.6 ± 1.2 | 16 ± 4 % free | 7.1 ± 0.8 | 14 ± 4 % free | 1.6 ± 0.5 | 12 ± 2 % free | 5 ± 1 | 3 ± 1 | 14 ± 4 | free PTER as percentage of the total ([1]; between 30 and 240 minutes): 15-35%; total concentration of PTER in plasma ([1]; between 30 and 240 minutes): > 10 µM; Extravascular level, Lung ([2]; 5 min): 36 ± 6; Extravascular level, Brain ([2]; 10 min): 2 ± 0.5*; Extravascular level, Kidney ([2]; 10 min): 3 ± 0.3; Extravascular level, Liver ([2]; 10 min): 7 ± 1*; Extravascular level, Lung ([2]; 10 min): 15 ± 3*; Extravascular level, Kidney ([2]; 30 min): 2 ± 0.4*; Extravascular level, Liver ([2]; 30 min): 3 ± 0.5*; Extravascular level, Lung ([2]; 30 min): 6 ± 1*; Extravascular level, Kidney ([2]; 60 min): 1 ± 0.3*; Extravascular level, Lung ([2]; 60 min): 2 ± 1*
2 | O=c1c(O)c(-c2ccc(O)c(O)c2)oc2cc(O)cc(O)c12 [QUER, quercetin] | 10 | 1.6 ± 0.3 | 22 ± 6 | 2.3 ± 0.7 | <0.5* % free | 0.6 ± 0.2 | <0.5* % free | 0.2 ± 0.1 | <0.5* % free | 0.07 ± 0.01 | <0.5* % free | 0.05 ± 0.02 | <0.5* % free | 0.05 ± 0.02 | <0.5* % free | 0.04 ± 0.01 | <0.5* % free | 4 ± 1 | 1 ± 0.2 | 9 ± 3 | free QUER as percentage of the total ([1]; except for the first 5 minutes): 0.5%; levels of total QUER in plasma ([1]; first 10 minutes): > 1 µM; Extravascular level, Lung ([2]; 5 min): 15 ± 3; Extravascular level, Brain ([2]; 10 min): 2 ± 0.4*; Extravascular level, Kidney ([2]; 10 min): 1 ± 0.5; Extravascular level, Liver ([2]; 10 min): 3 ± 1*^; Extravascular level, Lung ([2]; 10 min): 8 ± 2*; Extravascular level, Liver ([2]; 30 min): 1 ± 0.2*; Extravascular level, Lung ([2]; 30 min): 2 ± 0.6*
